Results from PubChem BioAssay AID1963440 (Molecular Pharmacology Branch, DTP, NCI, 2024).
Each block holds one compound with its values, some of them ahead of it.

System: NCI-H1417 complex spheroids, growth % test/control
Test: Anticancer human tumor NCI-H1417 cell line growth inhibition [Asc];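 note: spheroids exposed to compounds for 7 days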;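 for viability, T/C: 100% = DMSO vehicle control wells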
Settings: for IC50: curve of first compound; for viability, T/C: stronger effect = lower value
Method in brief: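 Stromal components (HUVEC and hMSC) are co-assembled with the cancer cells into multicellular spheroids. Drugs are then added singly or paired, at concentrations falling by half-log increments from a clinically achievable maximum, capped at 10 microM without known Cmax.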

[1] = second compound 0.01 µM, first compound 0.00316 µM
[2] = second compound 0.01 µM, first compound 0.01 µM
[3] = second compound 0.01 µM, first compound 0.0316 µM
[4] = second compound 0.01 µM, first compound 0.1 µM
[5] = second compound 0.0316 µM, first compound 0.00316 µM
[6] = second compound 0.0316 µM, first compound 0.01 µM
[7] = second compound 0.0316 µM, first compound 0.0316 µM
[8] = second compound 0.0316 µM, first compound 0.1 µM
[9] = second compound 0.1 µM, first compound 0.00316 µM
[10] = second compound 0.1 µM, first compound 0.01 µM
[11] = second compound 0.1 µM, first compound 0.0316 µM
[12] = second compound 0.1 µM, first compound 0.1 µM
[13] = second compound 0.316 µM, first compound 0.00316 µM
[14] = second compound 0.316 µM, first compound 0.01 µM
[15] = second compound 0.316 µM, first compound 0.0316 µM
[16] = second compound 0.316 µM, first compound 0.1 µM
[17] = second compound 1 µM, first compound 0.00316 µM
[18] = second compound 1 µM, first compound 0.01 µM
[19] = second compound 1 µM, first compound 0.0316 µM
[20] = second compound 1 µM, first compound 0.1 µM
[21] = second compound 0.01 µM, first compound 0.316 µM
[22] = second compound 0.01 µM, first compound 1 µM
[23] = second compound 0.0316 µM, first compound 0.316 µM
[24] = second compound 0.0316 µM, first compound 1 µM
[25] = second compound 0.1 µM, first compound 0.316 µM
[26] = second compound 0.1 µM, first compound 1 µM
[27] = second compound 0.316 µM, first compound 0.316 µM
[28] = second compound 0.316 µM, first compound 1 µM
[29] = second compound 1 µM, first compound 0.316 µM
[30] = second compound 1 µM, first compound 1 µM

- IC50 (second compound 0.01 µM): > 300 nM
- IC50 (second compound 0.0316 µM): 299 nM
- IC50 (second compound 0.1 µM): 275 nM
- IC50 (second compound 0.316 µM): 265 nM
- IC50 (second compound 1 µM): 249 nM
Compound: NC(=O)C(=Cn1cnc(-c2cc(C(F)(F)F)cc(C(F)(F)F)c2)n1)c1cncnc1 + CNC(C)C(=O)NC1CN(S(=O)(=O)c2cccc(S(=O)(=O)N3CCC4CCC(C(=O)NC(c5ccccc5)c5ccccc5)N4C(=O)C(NC(=O)C(C)NC)C3)c2)CCC2CCC(C(=O)NC(c3ccccc3)c3ccccc3)N2C1=O
- viability, T/C (second compound 0.01 µM, first compound 0.000949 µM): 103%
- viability, T/C (second compound 0.01 µM, first compound 0.003 µM): 93.3%
- viability, T/C (second compound 0.01 µM, first compound 0.00949 µM): 99.5%
- viability, T/C (second compound 0.01 µM, first compound 0.03 µM): 103%
- viability, T/C (second compound 0.01 µM, first compound 0.0949 µM): 89.6%
- viability, T/C (second compound 0.01 µM, first compound 0.3 µM): 63.3%
- viability, T/C (second compound 0.0316 µM, first compound 0.000949 µM): 111%
- viability, T/C (second compound 0.0316 µM, first compound 0.003 µM): 94.2%
- viability, T/C (second compound 0.0316 µM, first compound 0.00949 µM): 93%
- viability, T/C (second compound 0.0316 µM, first compound 0.03 µM): 102%
- viability, T/C (second compound 0.0316 µM, first compound 0.0949 µM): 83.5%
- viability, T/C (second compound 0.0316 µM, first compound 0.3 µM): 49.6%
- viability, T/C (second compound 0.1 µM, first compound 0.000949 µM): 89.3%
- viability, T/C (second compound 0.1 µM, first compound 0.003 µM): 104%
- viability, T/C (second compound 0.1 µM, first compound 0.00949 µM): 105%
- viability, T/C (second compound 0.1 µM, first compound 0.03 µM): 90.2%
- viability, T/C (second compound 0.1 µM, first compound 0.0949 µM): 76%
- viability, T/C (second compound 0.1 µM, first compound 0.3 µM): 47.8%
- viability, T/C (second compound 0.316 µM, first compound 0.000949 µM): 110%
- viability, T/C (second compound 0.316 µM, first compound 0.003 µM): 98.7%
- viability, T/C (second compound 0.316 µM, first compound 0.00949 µM): 112%
- viability, T/C (second compound 0.316 µM, first compound 0.03 µM): 92.2%
- viability, T/C (second compound 0.316 µM, first compound 0.0949 µM): 86.7%
- viability, T/C (second compound 0.316 µM, first compound 0.3 µM): 45.1%
- viability, T/C (second compound 1 µM, first compound 0.000949 µM): 91.5%
- viability, T/C (second compound 1 µM, first compound 0.003 µM): 92.7%
- viability, T/C (second compound 1 µM, first compound 0.00949 µM): 93%
- viability, T/C (second compound 1 µM, first compound 0.03 µM): 94.8%
- viability, T/C (second compound 1 µM, first compound 0.0949 µM): 86.9%
- viability, T/C (second compound 1 µM, first compound 0.3 µM): 42.6%

- IC50 (second compound 0.01 µM): > 100 nM
- IC50 (second compound 0.0316 µM): > 100 nM
- IC50 (second compound 0.1 µM): > 100 nM
- IC50 (second compound 0.316 µM): > 100 nM
- IC50 (second compound 1 µM): > 100 nM
Compound: Cn1ncnc1[C@H]1c2n[nH]c(=O)c3cc(F)cc(c23)N[C@@H]1c1ccc(F)cc1 + CNC(C)C(=O)NC1CN(S(=O)(=O)c2cccc(S(=O)(=O)N3CCC4CCC(C(=O)NC(c5ccccc5)c5ccccc5)N4C(=O)C(NC(=O)C(C)NC)C3)c2)CCC2CCC(C(=O)NC(c3ccccc3)c3ccccc3)N2C1=O
- viability, T/C (second compound 0.01 µM, first compound 0.000316 µM): 110%
- viability, T/C (second compound 0.01 µM, first compound 0.001 µM): 115%
- viability, T/C [1]: 96.8%
- viability, T/C [2]: 81.1%
- viability, T/C [3]: 69.4%
- viability, T/C [4]: 85.3%
- viability, T/C (second compound 0.0316 µM, first compound 0.000316 µM): 104%
- viability, T/C (second compound 0.0316 µM, first compound 0.001 µM): 98.8%
- viability, T/C [5]: 94%
- viability, T/C [6]: 87.4%
- viability, T/C [7]: 69%
- viability, T/C [8]: 80.2%
- viability, T/C (second compound 0.1 µM, first compound 0.000316 µM): 95.8%
- viability, T/C (second compound 0.1 µM, first compound 0.001 µM): 93%
- viability, T/C [9]: 90.9%
- viability, T/C [10]: 78.3%
- viability, T/C [11]: 66.9%
- viability, T/C [12]: 74%
- viability, T/C (second compound 0.316 µM, first compound 0.000316 µM): 99.6%
- viability, T/C (second compound 0.316 µM, first compound 0.001 µM): 110%
- viability, T/C [13]: 102%
- viability, T/C [14]: 78.5%
- viability, T/C [15]: 64.3%
- viability, T/C [16]: 70.1%
- viability, T/C (second compound 1 µM, first compound 0.000316 µM): 98%
- viability, T/C (second compound 1 µM, first compound 0.001 µM): 112%
- viability, T/C [17]: 95.4%
- viability, T/C [18]: 81.3%
- viability, T/C [19]: 80%
- viability, T/C [20]: 84.4%

- IC50 (second compound 0.00316 µM): > 10000 nM
- IC50 (second compound 0.01 µM): > 10000 nM
- IC50 (second compound 0.0316 µM): > 10000 nM
- IC50 (second compound 0.1 µM): > 10000 nM
- IC50 (second compound 0.316 µM): > 10000 nM
- IC50 (second compound 1 µM): > 10000 nM
Compound: C#Cc1c(F)ccc2cc(O)cc(-c3ncc4c(N5CC6CCC(C5)N6)nc(OCC56CCCN5CC(F)C6)nc4c3F)c12 (configuration not stated) + CNC(C)C(=O)NC1CN(S(=O)(=O)c2cccc(S(=O)(=O)N3CCC4CCC(C(=O)NC(c5ccccc5)c5ccccc5)N4C(=O)C(NC(=O)C(C)NC)C3)c2)CCC2CCC(C(=O)NC(c3ccccc3)c3ccccc3)N2C1=O
- viability, T/C (second compound 0.00316 µM, first compound 0.0316 µM): 96.1%
- viability, T/C (second compound 0.00316 µM, first compound 0.1 µM): 87.6%
- viability, T/C (second compound 0.00316 µM, first compound 0.316 µM): 99.3%
- viability, T/C (second compound 0.00316 µM, first compound 1 µM): 95.7%
- viability, T/C (second compound 0.00316 µM, first compound 3.16 µM): 81.7%
- viability, T/C (second compound 0.00316 µM, first compound 10 µM): 65%
- viability, T/C [3]: 98%
- viability, T/C [4]: 90%
- viability, T/C [21]: 82.2%
- viability, T/C [22]: 98.1%
- viability, T/C (second compound 0.01 µM, first compound 3.16 µM): 93.2%
- viability, T/C (second compound 0.01 µM, first compound 10 µM): 66.4%
- viability, T/C [7]: 101%
- viability, T/C [8]: 90.6%
- viability, T/C [23]: 91.1%
- viability, T/C [24]: 98.2%
- viability, T/C (second compound 0.0316 µM, first compound 3.16 µM): 88.9%
- viability, T/C (second compound 0.0316 µM, first compound 10 µM): 69.3%
- viability, T/C [11]: 89.5%
- viability, T/C [12]: 91.5%
- viability, T/C [25]: 86%
- viability, T/C [26]: 97.6%
- viability, T/C (second compound 0.1 µM, first compound 3.16 µM): 91.2%
- viability, T/C (second compound 0.1 µM, first compound 10 µM): 69.8%
- viability, T/C [15]: 82.3%
- viability, T/C [16]: 80.9%
- viability, T/C [27]: 87.1%
- viability, T/C [28]: 86.7%
- viability, T/C (second compound 0.316 µM, first compound 3.16 µM): 91.2%
- viability, T/C (second compound 0.316 µM, first compound 10 µM): 64.6%
- viability, T/C [19]: 97.5%
- viability, T/C [20]: 80.9%
- viability, T/C [29]: 89.6%
- viability, T/C [30]: 84.3%
- viability, T/C (second compound 1 µM, first compound 3.16 µM): 86.7%
- viability, T/C (second compound 1 µM, first compound 10 µM): 66.8%

- IC50 (second compound 0.01 µM): > 1000 nM
- IC50 (second compound 0.0316 µM): > 1000 nM
- IC50 (second compound 0.1 µM): > 1000 nM
- IC50 (second compound 0.316 µM): > 1000 nM
- IC50 (second compound 1 µM): > 1000 nM
Compound: CCN1CCN(Cc2ccc(Nc3ncc(F)c(-c4cc(F)c5nc(C)n(C(C)C)c5c4)n3)nc2)CC1 + CNC(C)C(=O)NC1CN(S(=O)(=O)c2cccc(S(=O)(=O)N3CCC4CCC(C(=O)NC(c5ccccc5)c5ccccc5)N4C(=O)C(NC(=O)C(C)NC)C3)c2)CCC2CCC(C(=O)NC(c3ccccc3)c3ccccc3)N2C1=O
- viability, T/C [1]: 100%
- viability, T/C [2]: 108%
- viability, T/C [3]: 106%
- viability, T/C [4]: 99.7%
- viability, T/C [21]: 96.5%
- viability, T/C [22]: 111%
- viability, T/C [5]: 102%
- viability, T/C [6]: 103%
- viability, T/C [7]: 104%
- viability, T/C [8]: 105%
- viability, T/C [23]: 97.4%
- viability, T/C [24]: 103%
- viability, T/C [9]: 93.2%
- viability, T/C [10]: 101%
- viability, T/C [11]: 99.2%
- viability, T/C [12]: 97.8%
- viability, T/C [25]: 103%
- viability, T/C [26]: 109%
- viability, T/C [13]: 99.3%
- viability, T/C [14]: 105%
- viability, T/C [15]: 90.6%
- viability, T/C [16]: 99.9%
- viability, T/C [27]: 95.2%
- viability, T/C [28]: 97.7%
- viability, T/C [17]: 105%
- viability, T/C [18]: 109%
- viability, T/C [19]: 101%
- viability, T/C [20]: 110%
- viability, T/C [29]: 90%
- viability, T/C [30]: 93.7%
